Data set [1] can be described thus: In vivo histological toxicity (spleen and kidney, H&E). Conditions: therapeutic dose, H&E stained, versus normal and control group. Set-up: species or system Balb/c nude mouse. How it is done: (§1) In order to confirm a toxicological effect by therapeutic dose, a body weight and histological states of organs were evaluated. The body weight was measured twice a week, and after euthanizing the animal model at the timing at which evaluation was terminated, spleen and kidney tissue was collected and H&E stained.

Data set [2] can be described thus: In vivo physiological toxicity (body weight). Set-up: species or system mouse. Conditions: therapeutic dose, early stage of administration, measured twice a week. On the procedure: as §1
In data set [3] the target is T1, GRP-R (Homo sapiens, UniProt P30550).
T1 construct: PC-3 cells were used as a human prostate cancer cell line; host or cells: PC-3 human prostate cancer cells
Nature of the data set: Binding of 177Lu-DOTA-gluBBN in PC-3 cells (dissociation constant). Conditions: 0.01 to 100 nM, 37° C., 2 hours. On the procedure:
(§2) In order to confirm in vitro targeting efficiency of DOTA-gluBBN and 177Lu-DOTA-gluBBN prepared according to Examples 1 and 2 to prostate cancer cells, PC-3 cells were used as a human prostate cancer cell line. The PC-3 cells corresponding to the human prostate cancer cell line were purchased from Korean cell line bank. The PC-3 cells were cultured in a Roswell Park Memorial Institute (RPMI) 1640 medium containing 10% fetal bovine serum (FBS) at 37° C. in 5% CO2 atmosphere.
(§3) The cells were cultured in a disposable flask for cell culture, and at the time of an experiment, the cells were cultured in a 96-well or 12-well cell culture plate according to an experimental method and then used.
In addition, 177Lu-DOTA-gluBBN (0.01 to 100 nM) prepared according to Example 2 was reacted, respectively, in the PC-3 cells. After culturing a cell plate at 37° C. for 2 hours, a reaction solution was recovered. After the cells were washed with PBS and recovered by 1N NaOH, radioactivity of each solution was measured using a gamma counter.

Another data set concerns prostate cancer. As to the kind of experiment: Comparison of in vivo targeting efficiency to prostate cancer with comparative material 177Lu-AMBA. Conditions: versus comparative material 177Lu-AMBA. An excerpt:
As a material having prostate cancer targeting mechanism similar to that of the bombesin derivatives (177Lu-DOTA-gluBBN) using the bombesin derivatives, which is the GRP-R agonist, prepared according to Example 2, 177Lu-AMBA (comparative material (J. Nucl. Med. 47(7):1144-1152 (Non-Patient Document)), see compound in FIG. 1) is a prostate cancer targeting diagnosis and treatment material of which excellent targeting efficiency is recognized, such that currently a phase 1 clinical trial was terminated.

Data set [4] in a line: In vivo distribution in PC-3 xenografted tumor mouse model. Conditions: male, Balb/c nude, tumor (PC-3 xenograft), total radioactivity, prostate cancer cells (tumor), 1 hour after intravenous injection, 370 KBq, read-out: tumor uptake, percentage of the injected dose per unit weight. On the procedure: In order to evaluate in vivo targeting efficiency of 177Lu-DOTA-gluBBN, in vivo distribution of 177Lu-DOTA-gluBBN in a tumor mouse model obtained by xenografting PC-3 cells, which are human prostate cancer cells, into a Balb/c nude mouse (Nara biotech, Korea) was evaluated. The tumor-bearing mouse model was prepared by subcutaneously injecting the PC-3 cells (1×10^7) into a right upper end of the shoulder of a male Balb/c nude mouse (7 weeks old) and allowing tumor to grow for 3 weeks. 177Lu-DOTA-gluBBN (370 KBq) was intravenously injected into a tail vein of the tumor mouse model. After […] of injection, the experimental animal was euthanized. Then, after the blood, the liver, the kidney, the spleen, the heart, the large intestine, the small intestine, the lung, the stomach, the pancreas, and the like, in addition to the tumor were extracted, weights of the organs were measured, and radioactivity of each organ was measured. 177Lu-DOTA-gluBBN uptake in each organ was expressed as percentage of the injected dose per unit weight (% ID/g). It was confirmed that 177Lu-DOTA-gluBBN targeted prostate cancer cells at 1 hour after intravenous injection with high efficiency (12.42±2.15% ID/g).

Data set [5] has as its target T1, GRP-R. Nature of the data set: Competitive binding with 125I-[Tyr4]-bombesin in PC-3 cells. Conditions: competition with 125I-[Tyr4]-bombesin (20,000 CPM), 37° C., 1 hour. How it is done: as §2, §3
DOTA-gluBBN (10^−6 to 10^−12M) prepared according to Example 1 was co-cultured with 125I-[Tyr^4]-bombesin (20,000 CPM), respectively, in the PC-3 cells, which are human prostate cancer cells, to thereby carry out a competitive reaction. After culturing a cell plate at 37° C. for 1 hour, a reaction solution was recovered. After the cells were washed with PBS and recovered by 1N NaOH, radioactivity of each solution was measured using a gamma counter.

T1 sequence (P30550 whole entry): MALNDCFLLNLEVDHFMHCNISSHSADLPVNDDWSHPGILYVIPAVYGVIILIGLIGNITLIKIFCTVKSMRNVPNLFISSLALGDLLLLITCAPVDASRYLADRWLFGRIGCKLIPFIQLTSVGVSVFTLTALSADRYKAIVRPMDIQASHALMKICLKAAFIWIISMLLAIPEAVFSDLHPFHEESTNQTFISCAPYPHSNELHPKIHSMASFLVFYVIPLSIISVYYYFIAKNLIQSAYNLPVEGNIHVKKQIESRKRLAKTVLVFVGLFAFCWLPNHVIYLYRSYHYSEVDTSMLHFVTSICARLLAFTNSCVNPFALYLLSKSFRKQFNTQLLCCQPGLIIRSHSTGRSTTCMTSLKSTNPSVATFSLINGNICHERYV

Usually Kd stands for the free concentration of one partner at which half of the binding sites on the other are occupied at equilibrium, for simple one-to-one binding. A higher Kd goes with lower affinity. As to `CSCC[C@H](NC(=O)[C@H](CC(C)C)NC(=O)[C@H](Cc1c[nH]cn1)NC(=O)CNC(=O)[C@@H](NC(=O)[C@H](C)NC(=O)[C@H](Cc1c[nH]c2ccccc12)NC(=O)[C@H](CCC(N)=O)NC(=O)c1ccc(NC(=O)[C@H](CCCCNC(=O)CO[C@@H]2[C@@H](O)[C@@H](O)O[C@H](CO)[C@H]2O)NC(=O)CN2CCN(CC(=O)O)CCN(CC(=O)O)CCN(CC(=O)O)CC2)cc1)C(C)C)C(N)=O` [177Lu-DOTA-gluBBN, metal not drawn], in data set [1], the “histological toxicity in spleen and kidney” value is “not observed”. In addition, the body weight change result in data set [2] is listed as “there was not a great change in the body weight”. On GRP-R [3], the Kd is roughly 0.63 nM. Further, the “removal in the blood versus 177Lu-AMBA” value in the data set with prostate cancer is “more rapidly removed in the blood”. Besides, in data set [4], the tissue uptake at 1 h is 12.4 ± 2.15 %ID/g.

In general, IC50 refers to the concentration at which inhibition is half-maximal. Consider `CSCC[C@H](NC(=O)[C@H](CC(C)C)NC(=O)[C@H](Cc1c[nH]cn1)NC(=O)CNC(=O)[C@@H](NC(=O)[C@H](C)NC(=O)[C@H](Cc1c[nH]c2ccccc12)NC(=O)[C@H](CCC(N)=O)NC(=O)c1ccc(NC(=O)[C@H](CCCCNC(=O)CO[C@@H]2[C@@H](O)[C@@H](O)O[C@H](CO)[C@H]2O)NC(=O)CN2CCN(CC(=O)O)CCN(CC(=O)O)CCN(CC(=O)O)CC2)cc1)C(C)C)C(N)=O` [DOTA-gluBBN], for which the half-inhibitory concentration (IC50) on GRP-R [5] is 4.67 nM.

Values taken from patent US9827338B2, “GRP-R agonistic 177-lutetium-labeled bombesin derivatives for diagnosis and treatment of prostate cancer” (KOREA ATOMIC ENERGY RESEARCH INSTITUTE, priority 2014, dated 2017).
